Reference: PMC4698058 (Fitoterapia, 2015)

Biological target: T1, recombinant human M1 receptor (Homo sapiens, UniProt P11229)
T1 sequence (P11229 1-460): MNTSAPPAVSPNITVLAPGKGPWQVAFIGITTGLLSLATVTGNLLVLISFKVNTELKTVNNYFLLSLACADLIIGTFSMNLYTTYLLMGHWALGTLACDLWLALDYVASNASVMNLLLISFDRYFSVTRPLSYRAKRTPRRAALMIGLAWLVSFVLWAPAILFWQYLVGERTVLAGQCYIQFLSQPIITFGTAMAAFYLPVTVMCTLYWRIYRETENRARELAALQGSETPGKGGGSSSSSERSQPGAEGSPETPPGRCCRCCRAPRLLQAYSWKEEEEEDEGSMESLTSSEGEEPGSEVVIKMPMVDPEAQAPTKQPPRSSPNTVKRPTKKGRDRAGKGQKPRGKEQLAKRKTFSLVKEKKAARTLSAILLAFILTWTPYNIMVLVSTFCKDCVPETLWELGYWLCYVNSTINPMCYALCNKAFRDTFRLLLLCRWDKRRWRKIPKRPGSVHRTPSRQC
Experiment: Inhibition of carbacol-induced Ca2+ mobilization in CHO-M1 cells
Format: cell-based
Conditions: for inhibition of carbacol induced M1 receptor activities: compound at 10 μM

Row | inhibition of carbacol induced M1 receptor activities (CHO-M1 cells) | Molecule | other results
1 | 35-40% | scotanamine A [compound 1] | –
2 | 35-40% | NCCCCNC(=O)/C=C/c1ccc(O)c(O)c1 [compound 6, cafeoylputrescine] | –
3 | – | O=C(O)/C=C/c1ccc(O)c(O)c1 [caffeic acid, reference compound] | activity against M1 receptor (concentrations up to 10 μM, CHO-M1 cells): did not show any activity
4 | – | scotanamine C [compound 3] | IC50 (read-out: IC50, inhibitory activity against M1 receptor): 7.8 µM
